pIC50: −log10 of the molar value. The source made the active and inactive calls. The calls were made as follows: active = viability on the fitted dose curve at most 10% of control; inactive = the rest.
Test system: NCI-H1618 multicellular tumor spheroid viability
Test: Anticancer human tumor NCI-H1618 cell line growth inhibition;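 also: spheroids exposed to agents for 7 days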
Conditions: for pIC50: curve of first compound; for viability, T/C: stronger effect = lower value
Method in brief: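 Complex spheroids of malignant cells with endothelial cells and mesenchymal stem cells; agents alone or combined, from near clinical Cmax (or 10 microM if unknown) down in half-log steps, 0.25% DMSO final.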

**Q.** `CC(C)n1c(=O)n(C)c2cnc3cc(F)c(-c4ccc(OCCCN5CCCCC5)nc4)cc3c21` + Cn1nnc2c(C(N)=O)ncn2c1=O was tested. Which pIC50 (second compound 1 µM) did it give?
**A.** < 5.00

**Q.** What about the pIC50 (second compound 3.16 µM) of the same compound?
**A.** > 7.50

**Q.** What about the pIC50 (second compound 10 µM) of the same compound?
**A.** > 7.50

**Q.** And the pIC50 (second compound 31.6 µM)?
**A.** > 7.50

**Q.** And the pIC50 (second compound 100 µM)?
**A.** 5.35

**Q.** What about the viability, T/C (second compound 1 µM, first compound 0.0316 µM) of the same compound?
**A.** 82.9%

**Q.** And the outcome (second compound 1 µM, first compound 0.1 µM)?
**A.** inactive

**Q.** What about the outcome (second compound 1 µM, first compound 0.316 µM) of the same compound?
**A.** inactive

**Q.** What about the viability, T/C (second compound 1 µM, first compound 1 µM) of the same compound?
**A.** 86.7%

**Q.** What about the viability, T/C (second compound 1 µM, first compound 3.16 µM) of the same compound?
**A.** 78.4%

**Q.** What about the viability, T/C (second compound 1 µM, first compound 10 µM) of the same compound?
**A.** 69%

**Q.** And the viability, T/C (second compound 3.16 µM, first compound 0.0316 µM)?
**A.** 20.5%

**Q.** And the viability, T/C (second compound 3.16 µM, first compound 0.1 µM)?
**A.** 16.2%

**Q.** What about the viability, T/C (second compound 3.16 µM, first compound 0.316 µM) of the same compound?
**A.** 25.4%

**Q.** And the viability, T/C (second compound 3.16 µM, first compound 1 µM)?
**A.** 22.2%

**Q.** What about the viability, T/C (second compound 3.16 µM, first compound 3.16 µM) of the same compound?
**A.** 8.21%

**Q.** And the viability, T/C (second compound 3.16 µM, first compound 10 µM)?
**A.** 14.4%

**Q.** What about the viability, T/C (second compound 10 µM, first compound 0.0316 µM) of the same compound?
**A.** 12.6%

**Q.** And the viability, T/C (second compound 10 µM, first compound 0.1 µM)?
**A.** 2.97%

**Q.** And the viability, T/C (second compound 10 µM, first compound 0.316 µM)?
**A.** 8.79%

**Q.** What about the viability, T/C (second compound 10 µM, first compound 1 µM) of the same compound?
**A.** 11.4%

**Q.** What about the viability, T/C (second compound 10 µM, first compound 3.16 µM) of the same compound?
**A.** 19.9%

**Q.** What about the viability, T/C (second compound 10 µM, first compound 10 µM) of the same compound?
**A.** 5.34%

**Q.** And the viability, T/C (second compound 31.6 µM, first compound 0.0316 µM)?
**A.** 9.31%

**Q.** What about the viability, T/C (second compound 31.6 µM, first compound 0.1 µM) of the same compound?
**A.** 17.1%

**Q.** What about the viability, T/C (second compound 31.6 µM, first compound 0.316 µM) of the same compound?
**A.** 12.9%

**Q.** What about the viability, T/C (second compound 31.6 µM, first compound 1 µM) of the same compound?
**A.** 11.6%

**Q.** And the viability, T/C (second compound 31.6 µM, first compound 3.16 µM)?
**A.** 23%

**Q.** What about the viability, T/C (second compound 31.6 µM, first compound 10 µM) of the same compound?
**A.** 6.81%

**Q.** What about the viability, T/C (second compound 100 µM, first compound 0.0316 µM) of the same compound?
**A.** 57.3%

**Q.** What about the viability, T/C (second compound 100 µM, first compound 0.1 µM) of the same compound?
**A.** 68.8%

**Q.** What about the viability, T/C (second compound 100 µM, first compound 0.316 µM) of the same compound?
**A.** 52%

**Q.** And the viability, T/C (second compound 100 µM, first compound 1 µM)?
**A.** 67.2%

**Q.** And the viability, T/C (second compound 100 µM, first compound 3.16 µM)?
**A.** 57.6%

**Q.** What about the viability, T/C (second compound 100 µM, first compound 10 µM) of the same compound?
**A.** 29.9%

Reference: PubChem BioAssay AID1845206 (Molecular Pharmacology Branch, DTP, NCI, 2023)
